Patent US11058680B2, “Combinations of opioid/TLR4 antagonists and acetaminophen for use in the treatment of emotional pain and insomnia” (Allodynic Threapeutics, LLC, priority 2016, dated 2021)

Tested on: emotional pain
Experiment: Migraine open-label pilot study: emotional pain on 4-point scale (emotional pain-free, emotional pain intensity)
Format: in vivo, human
Procedure: Sixteen unique patients were enrolled in an open phase pilot study for the acute treatment of migraine attacks, insomnia, and emotional pain. Of the sixteen patients, eleven were evaluated for one migraine attack, one for two attacks, two for four attacks, one for six attacks, and one for fourteen attacks. A total of forty-one […] treatments were evaluated. Patients received a single dose of one of the following treatment options:
The majority of the patients remained in the clinic for observation for 2 hours after dosing. They completed headache diary assessments immediately before and after dosing at time points: 7, 15, and 30 minutes; and 1, 1.5, 2, 3, 6, 12, 24, and 48 hours. Headache pain was assessed on a 4-point scale (0=none; 1=mild; 2=moderate; 3=severe). The assessment of photophobia, phonophobia, nausea, and neck/shoulder pain was assessed as present or absent. The assessment of emotional pain was recorded on a 4-point scale (0=none, 1=mild, 2=moderate, 3=severe). The assessment of difficulty sleeping or falling asleep (insomnia) was assessed on a 4-point scale (0=none, 1=mild, 2=moderate, 3=severe) at baseline, for the night before treatment and for the following nights at 24, and 48 hours. Patients recorded side effects severity at each time point. Patients recorded the time of the first rescue medication dose and all additional headache medications used within 48 hours. Patients were required to stay awake to record their assessments in the first 2 hours, sleeping was permitted thereafter. While asleep, assessments were completed according to patients' best estimation. For data analysis, it was assumed that a migraine attack is a unique patient. Patients were asked to specify (yes or no answer) to whether they experienced emotional pain symptoms such as: hurt feelings, sadness, fear, or anger. Patients who replied positively to having emotional pain were asked to specify the cause into one of the following options: relationship, work/school, money/debt, health, or loss/grief.

O=C1CC[C@@]2(O)[C@H]3Cc4ccc(O)c5c4[C@@]2(CCN3CC2CC2)[C@H]1O5 [naltrexone]
emotional pain intensity decreased by (24-hour change from baseline, naltrexone 2.25 mg (n=9)): 55%
Emotional pain-free (7 min, NTX/APAP 2.25 mg/325 mg, NTX 2.25 mg): 1 (33) n (%)
Emotional pain-free (7 min, NTX/APAP 3.25 mg/325 mg, NTX 3.25 mg): 1 n (%)
Emotional pain-free (7 min, NTX/APAP 5 mg/325 mg, NTX 5 mg): 0 n (%)
Emotional pain-free (7 min, all doses combined): 2 (33) n (%)
Emotional pain-free (15 min, NTX/APAP 2.25 mg/325 mg, NTX 2.25 mg): 7 (77) n (%)
Emotional pain-free (15 min, NTX/APAP 3.25 mg/325 mg, NTX 3.25 mg): 2 n (%)
Emotional pain-free (15 min, NTX/APAP 5 mg/325 mg, NTX 5 mg): 0 n (%)
Emotional pain-free (15 min, NTX/APAP […]325 mg, NTX 1.5 mg): 2 n (%)
Emotional pain-free (15 min, all doses combined): 11 (69) n (%)
Emotional pain-free (30 min, NTX/APAP 2.25 mg/325 mg, NTX 2.25 mg): 8 (89) n (%)
Emotional pain-free (30 min, NTX/APAP 3.25 mg/325 mg, NTX 3.25 mg): 2 (66) n (%)
Emotional pain-free (30 min, NTX/APAP 5 mg/325 mg, NTX 5 mg): 1 (100) n (%)
Emotional pain-free (30 min, NTX/APAP […]325 mg, NTX 1.5 mg): 2 (66) n (%)
Emotional pain-free (30 min, all doses combined): 13 (87) n (%)
Emotional pain-free (1 h, NTX/APAP 2.25 mg/325 mg, NTX 2.25 mg): 9 (100) n (%)
Emotional pain-free (1 h, NTX/APAP 3.25 mg/325 mg, NTX 3.25 mg): 2 (66) n (%)
Emotional pain-free (1 h, NTX/APAP 5 mg/325 mg, NTX 5 mg): 1 n (%)
Emotional pain-free (1 h, NTX/APAP […]325 mg, NTX 1.5 mg): 2 (66) n (%)
Emotional pain-free (1 h, all doses combined): 14 (88) n (%)
Emotional pain-free (90 min, NTX/APAP 2.25 mg/325 mg, NTX 2.25 mg): 9 (100) n (%)
Emotional pain-free (90 min, NTX/APAP 3.25 mg/325 mg, NTX 3.25 mg): 3 (100) n (%)
Emotional pain-free (90 min, NTX/APAP 5 mg/325 mg, NTX 5 mg): 1 (100) n (%)
Emotional pain-free (90 min, NTX/APAP […]325 mg, NTX 1.5 mg): 3 (100) n (%)
Emotional pain-free (90 min, all doses combined): 16 (100) n (%)
Emotional pain-free (2 h, NTX/APAP 2.25 mg/325 mg, NTX 2.25 mg): 9 (100) n (%)
Emotional pain-free (2 h, NTX/APAP 3.25 mg/325 mg, NTX 3.25 mg): 3 (100) n (%)
Emotional pain-free (2 h, NTX/APAP 5 mg/325 mg, NTX 5 mg): 1 n (%)
Emotional pain-free (2 h, NTX/APAP […]325 mg, NTX 1.5 mg): 3 (100) n (%)
Emotional pain-free (2 h, combined doses): 16 (100)
Emotional pain-free (3 h, NTX/APAP 2.25 mg/325 mg, NTX 2.25 mg): 9 (100) n (%)
Emotional pain-free (3 h, NTX/APAP 3.25 mg/325 mg, NTX 3.25 mg): 3 (100) n (%)
Emotional pain-free (3 h, NTX/APAP 5 mg/325 mg, NTX 5 mg): 1 (100) n (%)
Emotional pain-free (3 h, NTX/APAP […]325 mg, NTX 1.5 mg): 3 (100) n (%)
Emotional pain-free (3 h, combined doses): 16 (100) n (%)
Emotional pain-free (4 h, NTX/APAP 2.25 mg/325 mg, NTX 2.25 mg): 9 (100) n (%)
Emotional pain-free (4 h, NTX/APAP 3.25 mg/325 mg, NTX 3.25 mg): 3 (100) n (%)
Emotional pain-free (4 h, NTX/APAP 5 mg/325 mg, NTX 5 mg): 1 (100) n (%)
Emotional pain-free (4 h, NTX/APAP […]325 mg, NTX 1.5 mg): 3 (100) n (%)
Emotional pain-free (4 h, combined doses): 15 (94) n (%)
Emotional pain-free (6 h, NTX/APAP 2.25 mg/325 mg, NTX 2.25 mg): 9 (100) n (%)
Emotional pain-free (6 h, NTX/APAP 3.25 mg/325 mg, NTX 3.25 mg): 3 (100) n (%)
Emotional pain-free (6 h, NTX/APAP 5 mg/325 mg, NTX 5 mg): 1 (100) n (%)
Emotional pain-free (6 h, NTX/APAP […]325 mg, NTX 1.5 mg): 3 (100) n (%)
Emotional pain-free (6 h, combined doses): 15 (94) n (%)
Emotional pain-free (12 h, NTX/APAP 2.25 mg/325 mg, NTX 2.25 mg): 9 (100) n (%)
Emotional pain-free (12 h, NTX/APAP 3.25 mg/325 mg, NTX 3.25 mg): 3 (100) n (%)
Emotional pain-free (12 h, NTX/APAP 5 mg/325 mg, NTX 5 mg): 1 (100) n (%)
Emotional pain-free (12 h, NTX/APAP […]325 mg, NTX 1.5 mg): 3 (100) n (%)
Emotional pain-free (12 h, combined doses): 15 (94) n (%)
Emotional pain-free (24 h, NTX/APAP 2.25 mg/325 mg, NTX 2.25 mg): 9 (100) n (%)
Emotional pain-free (24 h, NTX/APAP 3.25 mg/325 mg, NTX 3.25 mg): 3 (100) n (%)
Emotional pain-free (24 h, NTX/APAP 5 mg/325 mg, NTX 5 mg): 1 (100) n (%)
Emotional pain-free (24 h, NTX/APAP […]325 mg, NTX 1.5 mg): 3 (100) n (%)
Emotional pain-free (24 h, combined doses): 15 (94)
Emotional Pain-free at 24 hours after dosing (NTX/APAP 2.25 mg/325 mg, NTX 2.25 mg): 9 (100) n (%)
Emotional Pain-free at 24 hours after dosing (NTX/APAP 3.25 mg/325 mg, NTX 3.25 mg): 3 n (%)
Emotional Pain-free at 24 hours after dosing (NTX/APAP 5 mg/325 mg, NTX 5 mg): 1 n (%)
Emotional Pain-free at 24 hours after dosing (NTX/APAP […]325 mg, NTX 1.5 mg): 3 n (%)
